In test [1] the target is NET: norepinephrine transporter (Homo sapiens, UniProt P23975). In words: Radioligand binding at NET ([3H] nisoxetine). The protocol: (§1) In order to exclude the potential interference of other receptor pathways to the observed neuritogenesis efficacy, we assessed the binding affinities of compounds 7, 18, 22, 24, 25, 28 and 29 at the biogenic amine transporters (NET, DAT, and SERT).
(§2) Radioligand competition studies were carried out by the National Institute of Mental Health's Psychoactive Drug Screening Program, Contract #HHSN-271-2008-00025-C (NIMH PDSP). The general procedures are listed as follows:
(§3) For experimental details please refer to the PDSP website http://pdsp.med.unc.edu/.[28]

In a further test the target is T1, σ2 receptor (Rattus norvegicus, UniProt Q5U3Y7).
T1 construct: (b) σ2 receptor, [^3H]-DTG, PC-12 cells; endogenous in cells; host or cells: PC-12 cells
T1 sequence (Q5U3Y7 1-176): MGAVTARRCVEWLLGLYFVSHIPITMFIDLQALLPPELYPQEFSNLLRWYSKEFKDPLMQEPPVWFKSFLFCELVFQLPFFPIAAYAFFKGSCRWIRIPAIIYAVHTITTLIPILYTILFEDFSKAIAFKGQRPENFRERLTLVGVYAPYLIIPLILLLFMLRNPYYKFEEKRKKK
Put plainly: Radioligand binding at σ2 receptor ([3H]-DTG, NIMH PDSP). The settings on record: for Ki: [3H] DTG, PC12 cells, mean ± SEM, three independent experiments; for Increase of binding affinity for σ2 receptor relative to compound 7: compared with parent compound 7.
Description: (§4) In this study, [^3H] pentazocine and [^3H]DTG (6) were used as the radioligands at σ1 and σ2 receptors. Firstly, we examined the effects of changing the substituents on the benzene ring. […] Mono-halogen substitution on the benzene ring exemplified by compounds 17–20 generally retained affinity for σ1 receptor compared with compound 7. […] The derivatives 21–25 also maintained similar high affinities for the σ1 receptor upon incorporation of two halogen atoms on the benzene ring. However, this is also accompanied with higher binding affinity to the σ2 receptor. […]. Next, we examined the effects of removing the methyl group on the basic nitrogen atom. […] […]. […] The results for the secondary amines 28 and 29 indicate that the hydrogen bond donor on basic nitrogen atom was beneficial for increased binding affinity to the σ1 receptor.
as §2
(§5) All the test compounds solution (1 mg mL^−1) were prepared by dissolving in DMSO or buffer solvent (50 mM Tris–HCl, pH = 8.0). The filter-mats were presoaked in 0.5% aqueous polyethyleneimine solution for 2 h at rt before use. All binding experiments were carried out in poly-L-lysine-coated 96-well plate and the final test concentration (50 μM, 5 μM, 1.5 μM, 500 nM, 150 nM, 50 nM, 15 nM, 5 nM, 1.5 nM, 0.5 nM, 0.05 nM) were prepared by addition of Tris–HCl solution (50 mM, pH = 8.0). The following specific radioligands and tissue source were used: (a) σ1 receptor, [^3H]-(+)-pentazocine, Guinea pig brain homogenate; (b) σ2 receptor, [^3H]-DTG, PC-12 cells. 100 μL of corresponding radioligand solution, 100 μL test compound solution and 50 μL of the respective receptor preparation into each well of the plate (total volume 250 μL). During the incubation, the plates were shaken at a speed of 500–600 rpm at the specified temperature (σ1 receptor, 37 °C, 150 min; σ2 receptor, rt, 120 min). The incubation was followed by a rapid vacuum filtration through Whatman GF/B glass filters, and the filtrates were washed twice with 10 mL of cold buffer and transferred to the 6 mL scintillation vials. EcoScint scintillation fluid (4.0 mL) was added, and the radioactivity bound was measured using a Beckman LS 6500 liquid scintillation counter. All experiments were performed at least three times.
as §3

The target of test [2] is DAT: dopamine transporter (Homo sapiens, UniProt Q01959). Put plainly: Radioligand binding at DAT ([3H] WIN35428). As to the method:
as §1, §2, §3

For another test, the system named is N1E-115 neuronal cells. Put plainly: Neurite outgrowth in N1E-115 cells. Type of test: cell-based, mouse. The settings on record: 10 μM in DMSO, four days, vs. vehicle (DMSO). The protocol:
Following the radioligand binding studies and CNS MPO calculations, all of the synthesized derivatives were further tested in cellular neuritogenesis studies. In this study, N1E-115 neuronal cells were used as a screening platform for assessing the neuritogenesis effects of candidate compounds.[31,32] All the derivatives and positive control (compound 7 and RC-33) were assessed at 10 μM concentration in DMSO, and vehicle group using DMSO alone.
N1E-115 cells, the mouse neuroblastoma cell lines, were obtained from the American Type Culture Collection (ATCC, Manassas, VA, USA). Undifferentiated N1E115 cells were cultured in DMEM complete medium with 10% fetal bovine serum, 100 U mL^−1 of penicillin, and 100 μg mL^−1 of streptomycin and maintained at 37 °C in a humidified incubator supplemented with 5% CO2. N1E-115 cells were seeded at a density of 1 × 10^4 cells per mL on poly-L-lysine-coated 96-well plates and grown with DMSO or different tested compounds (10 μM) in DMSO solution for four days. Four days after incubation, morphometric analysis was performed on digitized images of live cells taken under phase contrast illumination with an inverted microscope linked to a camera. Images of five fields per well were taken with an average of 100 cells per field. Cells that had at least one neurite with a length that was twice as long as the body diameter were expressed as a percentage of the total cells in the field. The counting was performed in a blinded manner. All experiments were performed at least five times.

The target of another test is T2, σ1 receptor (Cavia porcellus, UniProt Q60492).
T2 construct: σ1 receptor, [^3H]-(+)-pentazocine, Guinea pig brain homogenate; from tissue; host or cells: Guinea pig brain homogenate
In words: Radioligand binding at σ1 receptor ([3H]-(+)-pentazocine, NIMH PDSP). On the set-up: species or system Guinea pig. The settings on record: for Ki: [3H]-(+)-pentazocine, Guinea pig brain homogenate, mean ± SEM, three independent experiments; for Selectivity (Ki σ2/Ki σ1): ratio of Ki σ2 to Ki σ1.
Description: as §4, §2, §5, §3

Experimental findings from PMC9078399, “Discovery of N-cyclobutylaminoethoxyisoxazole derivatives as novel sigma-1 receptor ligands with neurite outgrowth efficacy in cells” (RSC Advances, 2018) are described below.

“Also recorded” adds a separate entry of the source. Bounds are passed on as bounds.

Chain of DAT: dopamine transporter (Q01959 whole entry): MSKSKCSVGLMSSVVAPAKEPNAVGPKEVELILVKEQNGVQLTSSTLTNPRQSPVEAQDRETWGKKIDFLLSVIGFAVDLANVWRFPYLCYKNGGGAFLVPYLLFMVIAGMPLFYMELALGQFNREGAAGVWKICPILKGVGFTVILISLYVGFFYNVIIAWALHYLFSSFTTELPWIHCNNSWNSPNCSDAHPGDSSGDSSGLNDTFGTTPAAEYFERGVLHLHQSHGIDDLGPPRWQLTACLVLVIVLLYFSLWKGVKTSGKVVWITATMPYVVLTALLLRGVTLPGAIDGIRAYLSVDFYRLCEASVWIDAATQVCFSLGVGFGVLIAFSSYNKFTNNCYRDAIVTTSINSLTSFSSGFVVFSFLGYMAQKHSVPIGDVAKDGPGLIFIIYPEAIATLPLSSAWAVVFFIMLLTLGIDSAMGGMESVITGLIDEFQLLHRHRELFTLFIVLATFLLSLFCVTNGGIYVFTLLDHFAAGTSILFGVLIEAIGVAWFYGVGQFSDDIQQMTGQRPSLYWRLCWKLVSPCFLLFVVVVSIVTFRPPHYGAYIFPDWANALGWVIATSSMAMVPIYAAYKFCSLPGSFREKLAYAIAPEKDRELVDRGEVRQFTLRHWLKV
T2 sequence (Q60492 whole entry): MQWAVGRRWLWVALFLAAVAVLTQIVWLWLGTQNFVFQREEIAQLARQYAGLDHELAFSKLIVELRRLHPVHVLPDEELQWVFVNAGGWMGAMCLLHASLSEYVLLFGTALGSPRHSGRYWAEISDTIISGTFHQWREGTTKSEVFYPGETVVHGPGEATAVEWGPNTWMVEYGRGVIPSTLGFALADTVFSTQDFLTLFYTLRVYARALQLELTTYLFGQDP
Chain of NET: norepinephrine transporter (P23975 whole entry): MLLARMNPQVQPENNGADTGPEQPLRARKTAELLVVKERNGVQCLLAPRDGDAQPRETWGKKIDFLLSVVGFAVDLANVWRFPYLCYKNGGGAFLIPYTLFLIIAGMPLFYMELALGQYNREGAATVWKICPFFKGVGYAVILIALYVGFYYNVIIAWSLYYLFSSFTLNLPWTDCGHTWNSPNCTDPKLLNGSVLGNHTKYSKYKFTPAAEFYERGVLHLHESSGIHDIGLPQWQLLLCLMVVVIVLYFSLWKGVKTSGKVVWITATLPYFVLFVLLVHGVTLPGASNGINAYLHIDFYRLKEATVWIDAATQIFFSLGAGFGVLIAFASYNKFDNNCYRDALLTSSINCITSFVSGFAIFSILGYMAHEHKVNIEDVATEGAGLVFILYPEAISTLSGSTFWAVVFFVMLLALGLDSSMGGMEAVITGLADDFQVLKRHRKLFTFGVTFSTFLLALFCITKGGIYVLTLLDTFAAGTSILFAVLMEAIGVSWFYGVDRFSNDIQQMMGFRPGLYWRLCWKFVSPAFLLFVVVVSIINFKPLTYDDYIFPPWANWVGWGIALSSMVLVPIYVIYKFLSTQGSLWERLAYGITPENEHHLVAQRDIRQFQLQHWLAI

The Ki is a measure of affinity in units of concentration, obtained from inhibition or displacement. A high value points to lower affinity. Take `CN(CCOc1cc(COc2ccc(F)c(Cl)c2)on1)C1CCC1.Cl` [Compound 25, N-(2-((5-((3-Chloro-4-fluorophenoxy)methyl)isoxazol-3-yl)oxy)ethyl)-N-methylcyclobutanamine hydrochloride]: the Ki is 1780 nM in test [1], 32 ± 6 nM on σ2 receptor, greater than 10000 nM in test [2] and 1.3 ± 0.4 nM at σ1 receptor. Moreover, the “Neurite outgrowth (neuritogenesis) effect” value (shortened to “Neurite outgrowth”) in the test with N1E-115 neuronal cells was “preferable neurite outgrowth effects compared to the parent compound 7 and positive control RC-33; also recorded: significant neuritogenesis effects”. Besides, the “Selectivity (Ki σ2/Ki σ1)” value on σ1 receptor amounted to 25.
Take `CN(CCOc1cc(COc2ccc(Cl)c(Cl)c2)on1)C1CCC1.Cl` [Compound 23, N-(2-((5-((3,4-Dichlorophenoxy)methyl)isoxazol-3-yl)oxy)ethyl)-N-methylcyclobutanamine hydrochloride]: the Ki at σ2 receptor was determined as 36 ± 9.7 nM. At σ1 receptor, the affinity corresponds to a Ki of 3.2 ± 1.6 nM and the “Selectivity (Ki σ2/Ki σ1)” value was 11.
As to `CN(CCOc1cc(COc2ccc(F)cc2)on1)C1CCC1.Cl` [Compound 18, N-(2-((5-((4-Fluorophenoxy)methyl)isoxazol-3-yl)oxy)ethyl)-N-methylcyclobutanamine hydrochloride], the results for the Ki (at σ2 receptor; in test [2]; at σ1 receptor) were 78.5 ± 19.5 nM, 5630 nM and 0.9 ± 0.1 nM, respectively. Moreover, in the test on N1E-115 neuronal cells, the “Neurite outgrowth” value was “preferable neurite outgrowth effects compared to the parent compound 7 and positive control RC-33; also recorded: significant neuritogenesis effects”. Also, the “Selectivity (Ki σ2/Ki σ1)” value at σ1 receptor is listed as 87.
`CN(CCOc1cc(COc2cc(Cl)cc(Cl)c2)on1)C1CCC1.Cl` [Compound 24, N-(2-((5-((3,5-Dichlorophenoxy)methyl)isoxazol-3-yl)oxy)ethyl)-N-methylcyclobutanamine hydrochloride]: the Ki is 1610 nM in test [1], 22.8 ± 11.1 nM on σ2 receptor, 1810 nM in test [2] and 7.8 ± 3.2 nM on σ1 receptor. The “Increase of binding affinity for σ2 receptor relative to compound 7” value on σ2 receptor is reported as “more than 10 fold”. For the same compound, the “Neurite outgrowth” value in the test with N1E-115 neuronal cells is “preferable neurite outgrowth effects compared to the parent compound 7 and positive control RC-33; also recorded: significant neuritogenesis effects”. For the same compound, the “Decrease of affinity for σ1 receptor relative to compound 7” value at σ1 receptor (compared with parent compound 7) was 4 fold. Further, the “Selectivity (Ki σ2/Ki σ1)” value on σ1 receptor worked out at 3.0.
In turn, `CN(CCOc1cc(COc2cccc(Br)c2)on1)C1CCC1.Cl` [Compound 19, N-(2-((5-((3-Bromophenoxy)methyl)isoxazol-3-yl)oxy)ethyl)-N-methylcyclobutanamine hydrochloride] gave a Ki at σ2 receptor of 105 ± 21 nM. Further, at σ1 receptor, affinity was put at a Ki of 0.8 ± 0.1 nM and the “Selectivity (Ki σ2/Ki σ1)” value came to 131.
With `Cl.c1ccc(OCc2cc(OCCNC3CCC3)no2)cc1` [Compound 28, N-(2-((5-(Phenoxymethyl)isoxazol-3-yl)oxy)ethyl)cyclobutanamine hydrochloride], the Ki in test [1] is 7100 nM; at σ2 receptor, 198 ± 64 nM; on σ1 receptor it was 0.2 nM. Moreover, the “Neurite outgrowth” value in the test on N1E-115 neuronal cells was “preferable neurite outgrowth effects compared to the parent compound 7 and positive control RC-33; also recorded: significant neuritogenesis effects”. The “Selectivity (Ki σ2/Ki σ1)” value on σ1 receptor was found to be 990.
`CN(CCOc1cc(COc2cccc(F)c2)on1)C1CCC1.Cl` [Compound 17, N-(2-((5-((3-Fluorophenoxy)methyl)isoxazol-3-yl)oxy)ethyl)-N-methylcyclobutanamine hydrochloride]: the Ki at σ2 receptor amounted to 91.5 ± 7.5 nM. At σ1 receptor, the Ki is 1.9 nM and the “Selectivity (Ki σ2/Ki σ1)” value worked out at 48.
The like results for `Cl.c1ccc(OCc2cc(OCCN(C3CCC3)C3CCC3)no2)cc1` [Compound 30, N-Cyclobutyl-N-(2-((5-(phenoxymethyl)isoxazol-3-yl)oxy)ethyl)cyclobutanamine hydrochloride] were, in that order, 53.5 ± 0.5 nM, 16 ± 5 nM and 3.3.
As for `Cl.Clc1cccc(OCc2cc(OCCNC3CCC3)no2)c1` [Compound 29, N-(2-((5-((3-Chlorophenoxy)methyl)isoxazol-3-yl)oxy)ethyl)cyclobutanamine hydrochloride], the Ki in test [1] amounted to 600 nM; on σ2 receptor it was 64.5 ± 13.2 nM; in test [2], 1520 nM; at σ1 receptor, 0.4 ± 0.1 nM. Further, the “Neurite outgrowth” value in the test on N1E-115 neuronal cells is “preferable neurite outgrowth effects compared to the parent compound 7 and positive control RC-33; also recorded: significant neuritogenesis effects”. Also, the “Selectivity (Ki σ2/Ki σ1)” value on σ1 receptor was found to be 161.
In turn, `CN(CCOc1cc(COc2ccc(F)c(F)c2)on1)C1CCC1.Cl` [Compound 21, N-(2-((5-((3,4-Difluorophenoxy)methyl)isoxazol-3-yl)oxy)ethyl)-N-methylcyclobutanamine hydrochloride] registered a Ki at σ2 receptor of 153 ± 37 nM. At σ1 receptor, the Ki was found to be 1.7 ± 0.3 nM and the “Selectivity (Ki σ2/Ki σ1)” value is on record as 90.
For the compound `Cc1cccc(OCc2cc(OCCN(C)C3CCC3)no2)c1.Cl` [Compound 27, N-Methyl-N-(2-((5-((m-tolyloxy)methyl)isoxazol-3-yl)oxy)ethyl)cyclobutanamine hydrochloride], at σ2 receptor, the affinity, expressed as Ki, was 124 ± 68 nM and the “Increase of binding affinity for σ2 receptor relative to compound 7” value is 3 fold. At σ1 receptor, the affinity, expressed as Ki, was 4.2 ± 1.9 nM and the “Selectivity (Ki σ2/Ki σ1)” value is 29.5.
As to `CN(CCOc1cc(COc2ccc(Br)cc2)on1)C1CCC1.Cl` [Compound 20, N-(2-((5-((4-Bromophenoxy)methyl)isoxazol-3-yl)oxy)ethyl)-N-methyl-cyclobutanamine hydrochloride], the Ki on σ2 receptor is 86.6 ± 16.8 nM. On σ1 receptor, the Ki was 5.5 ± 1.3 nM and the “Selectivity (Ki σ2/Ki σ1)” value was determined as 16.
`CN(CCOc1cc(COc2cccc(C(F)(F)F)c2)on1)C1CCC1.Cl` [Compound 26, N-Methyl-N-(2-((5-((3-(trifluoromethyl)phenoxy)methyl)isoxazol-3-yl)oxy)ethyl)cyclobutanamine hydrochloride] had a Ki at σ2 receptor of 38 ± 2 nM. Besides, the “Neurite outgrowth” value in the test on N1E-115 neuronal cells is “better efficacy than other mono-substituted compounds”. Also, at σ1 receptor, the affinity corresponds to a Ki of 4 ± 1.2 nM and the “Selectivity (Ki σ2/Ki σ1)” value was 9.5.
